According to PubChem BioAssay (NCI):
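Test compounds were applied to cells in 96-well plates for 48 hours at 5 doses. TGI denotes the concentration required for complete inhibition of growth.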

Legend:
Test in all cases: NCI tumour cell line growth inhibition, 48 h
[1] = system: 786-0 renal
[2] = system: A498 renal
[3] = system: A549 NSCLC
[4] = system: ACHN renal
[5] = system: CCRF-CEM leukemia
[6] = system: COLO 205 colon
[7] = system: DU-145 prostate
[8] = system: EKVX NSCLC
[9] = system: HCC-2998 colon
[10] = system: HCT-15 colon
[11] = system: HL-60(TB) leukemia
[12] = system: HOP-62 NSCLC
[13] = system: HOP-92 NSCLC
[14] = system: HS 578T breast
[15] = system: HT29 colon
[16] = system: IGROV1 ovarian
[17] = system: K-562 leukemia
[18] = system: KM12 colon
[19] = system: LOX IMVI melanoma
[20] = system: M14 melanoma
[21] = system: MALME-3M melanoma
[22] = system: MCF7 breast
[23] = system: MDA-MB-231 breast
[24] = system: MDA-MB-435
[25] = system: MDA-N
[26] = system: MOLT-4 leukemia
[27] = system: NCI-H226 lung
[28] = system: NCI-H23 lung
[29] = system: NCI-H460 lung
[30] = system: NCI-H522 lung
[31] = system: NCI/ADR-RES ovarian
[32] = system: OVCAR-3 ovarian
[33] = system: OVCAR-4 ovarian
[34] = system: OVCAR-5 ovarian
[35] = system: OVCAR-8 ovarian
[36] = system: PC-3 prostate
[37] = system: RPMI-8226 leukemia
[38] = system: RXF 393 renal
[39] = system: SF-268 CNS
[40] = system: SF-295 CNS
[41] = system: SF-539 CNS
[42] = system: SK-MEL-2 melanoma
[43] = system: SK-MEL-28 melanoma
[44] = system: SK-MEL-5 melanoma
[45] = system: SK-OV-3 ovarian
[46] = system: SN12C renal
[47] = system: SNB-19 CNS
[48] = system: SNB-75 CNS
[49] = system: SR leukemia
[50] = system: SW-620 colon
[51] = system: T-47D breast
[52] = system: TK-10 renal
[53] = system: U251 CNS
[54] = system: UACC-257 melanoma
[55] = system: UACC-62 melanoma
[56] = system: UO-31 renal
[57] = system: CAKI-1 renal
[58] = system: HCT-116 colon

In the case of `Cc1nc2c(nc1C)-c1[nH]c3c(c1C(=O)C2=O)CCCC3=O`, the TGI [1] is reported as 7.34 µM, the TGI [2] is reported as 21.5 µM and the TGI [3] is reported as 16.3 µM. For the same compound, the TGI [4] was 7.35 µM, the TGI [5] was 5.16 µM and the TGI [6] was 7.93 µM. It also gave a TGI [7] of 23.5 µM, a TGI [8] of 3.71 µM and a TGI [9] of 7.71 µM. It also gave a TGI [10] of 8.08 µM, a TGI [11] of 5.78 µM and a TGI [12] of 6.76 µM. The TGI [13] was 3.66 µM, the TGI [14] was over 59.2 µM and the TGI [15] was 16.2 µM. It also gave a TGI [16] of 11.5 µM, a TGI [17] of 5.59 µM and a TGI [18] of 4.43 µM. For the same compound, the TGI [19] was 2.87 µM, the TGI [20] was 3.4 µM and the TGI [21] was 2.82 µM. For the same compound, the TGI [22] was 2.98 µM, the TGI [23] was 3.4 µM and the TGI [24] was 1.48 µM. For the same compound, the TGI [25] was 1.9 µM, the TGI [26] was 5.67 µM and the TGI [27] was 3.04 µM. The TGI [28] was 5.63 µM, the TGI [29] was 16.2 µM and the TGI [30] was 4.42 µM. For the same compound, the TGI [31] was 6.47 µM, the TGI [32] was 2.07 µM and the TGI [33] was 3.04 µM. The TGI [34] was 4.7 µM, the TGI [35] was 2.88 µM and the TGI [36] was 15.7 µM. For the same compound, the TGI [37] was 3.22 µM, the TGI [38] was 2.41 µM and the TGI [39] was 2.9 µM. It also gave a TGI [40] of 3.31 µM, a TGI [41] of 3.12 µM and a TGI [42] of 3.29 µM. It also gave a TGI [43] of 3.16 µM, a TGI [44] of 3.02 µM and a TGI [45] of 6.87 µM. It also gave a TGI [46] of 3.28 µM, a TGI [47] of 5.58 µM and a TGI [48] of 3.31 µM. It also gave a TGI [49] of 6.4 µM, a TGI [50] of 5.17 µM and a TGI [51] of 0.709 µM. For the same compound, the TGI [52] was 34.8 µM, the TGI [53] was 2.92 µM and the TGI [54] was 4.83 µM. For the same compound, the TGI [55] was 3.25 µM and the TGI [56] was 10.3 µM.

For `Cc1c2c(C#N)nccc2c(C)c2c1c1ccccc1n2Cc1ccccc1`, the TGI [1] was over 100 µM, the TGI [3] was over 100 µM and the TGI [4] was over 100 µM. The TGI [57] was over 100 µM, the TGI [5] was over 100 µM and the TGI [6] was over 100 µM. It also gave a TGI [7] of over 100 µM, a TGI [8] of over 100 µM and a TGI [9] of over 100 µM. For the same compound, the TGI [58] was over 100 µM, the TGI [10] was over 100 µM and the TGI [11] was over 100 µM. For the same compound, the TGI [12] was over 100 µM, the TGI [13] was over 100 µM and the TGI [14] was over 100 µM. For the same compound, the TGI [15] was over 100 µM, the TGI [16] was over 100 µM and the TGI [17] was over 100 µM. It also gave a TGI [18] of over 100 µM, a TGI [19] of over 100 µM and a TGI [20] of over 100 µM. It also gave a TGI [21] of over 100 µM, a TGI [22] of over 100 µM and a TGI [23] of over 100 µM. It also gave a TGI [24] of over 100 µM, a TGI [25] of over 100 µM and a TGI [27] of over 100 µM. For the same compound, the TGI [28] was over 100 µM, the TGI [29] was over 100 µM and the TGI [31] was over 100 µM. The TGI [32] was over 100 µM, the TGI [33] was over 100 µM and the TGI [34] was over 100 µM. It also gave a TGI [35] of over 100 µM, a TGI [36] of over 100 µM and a TGI [37] of over 100 µM. It also gave a TGI [38] of over 100 µM, a TGI [39] of over 100 µM and a TGI [40] of over 100 µM. For the same compound, the TGI [41] was over 100 µM, the TGI [42] was over 100 µM and the TGI [43] was over 100 µM. For the same compound, the TGI [44] was over 100 µM, the TGI [45] was over 100 µM and the TGI [46] was over 100 µM. It also gave a TGI [47] of over 100 µM, a TGI [48] of over 100 µM and a TGI [49] of over 100 µM. The TGI [50] was over 100 µM, the TGI [51] was over 100 µM and the TGI [52] was over 100 µM. For the same compound, the TGI [53] was over 100 µM, the TGI [54] was over 100 µM and the TGI [55] was over 100 µM. The TGI [56] was over 100 µM.
